Experimental data as given in patent publication US10442803B2, “Tricyclic heterocycles as bet protein inhibitors” (Incyte Corporation, priority 2013, dated 2019).
Structures can show the parent of a compound that is named as a salt.

Columns and labels:
[1] = molecular target: BRD4-BD1 (Homo sapiens (Human), UniProt O60885); test: BRD4 AlphaScreen assay (BRD4-BD1); type: binding; settings: H4Ac4 peptide, read-out: BRD4 BD-1 enzyme IC50
Description: (§1) BRD4-BD1 and BRD4-BD2 assays were conducted in white 384-well polystyrene plate in a final volume of 20 μL for BD1 and 40 μL for BD2. Inhibitors were first serially diluted in DMSO and added to the plate wells before the addition of other reaction components. The final concentration of DMSO in the assay was 1.25% (BD1) and 0.83% (BD2). The assays were carried out at room temperature for 75 min. in the assay buffer (50 mM HEPES, pH 7.4, 100 mM NaCl, 0.05% CHAPS, 0.01% BSA), containing 50 nM Biotin-labeled tetra-acetylated histone H4 peptide (H4Ac4), 3.8 nM (BRD4-BD1, BPS Bioscience #31040) or 20 nM (BRD4-BD2, BPS Bioscience #31041). The reaction followed by the addition of 20 μL of assay buffer supplemented with Streptavidin donor beads (PerkinElmer 6760002) and GSH Acceptor beads (PerkinElmer-AL109C) at 4 μg/mL under reduced light. After plate sealing, the plate was incubated in the dark at room temperature for 75 min. before reading on a PHERAstar FS plate reader (BMG Labtech). IC50 determination was performed by fitting the curve of percent control activity versus the log of the inhibitor concentration using the GraphPad Prism 5.0 software.

[2] = molecular target: BRD4-BD2 (Homo sapiens (Human), UniProt O60885); test: BRD4 AlphaScreen assay (BRD4-BD2); type: binding; settings: H4Ac4 peptide, read-out: BRD4 BD-2 enzyme IC50
Description: as §1

[3] = system: KMS.12.BM cells; test: KMS.12.BM cell viability assay; type: cell-based; settings: 72 h; KMS.12.BM human myeloma cells, 3 days, Cell Titer-GLO ATP quantitation; read-out: KMS cellular IC50
Method in brief: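 Human myeloma KMS.12.BM cells, 5000 per well in RPMI/10% FBS, exposed 3 days to compound concentration range. Viability from ATP-based Cell Titer-GLO luminescence; IC50 derived.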

| SMILES | IC50 [1] [nM] | IC50 [2] [nM] | IC50 [3] [nM] |
| --- | --- | --- | --- |
| Cc1nnc2ccc3c(cc(-c4ccn(C5(CC#N)CN(C(C)C)C5)n4)n3Cc3ccccc3)n12 [Example 111, {3-[3-(6-benzyl-1-methyl-6H-pyrrolo[2,3-e][1,2,4]triazolo[4,3-a]pyridin-7-yl)-1H-pyrazol-1-yl]-1-isopropylazetidin-3-yl}acetonitrile] | ≤ 100 | – | ≤ 1000 |
| Cc1nnc2ccc3c(cc(-c4ccn(C5(CC#N)CNC5)n4)n3Cc3cccc(Cl)c3)n12 [Example 157, (3-{3-[6-(3-Chlorobenzyl)-1-methyl-6H-pyrrolo[2,3-e][1,2,4]triazolo[4,3-a]pyridin-7-yl]-1H-pyrazol-1-yl}azetidin-3-yl)acetonitrile bis(trifluoroacetate) salt] | ≤ 100 | ≤ 100 | ≤ 1000 |
| Cc1nnc2ccc3c(cc(-c4nnco4)n3Cc3cccc(Cl)c3)n12 [Example 141, 6-(3-Chlorobenzyl)-1-methyl-7-(1,3,4-oxadiazol-2-yl)-6H-pyrrolo[2,3-e][1,2,4]triazolo[4,3-a]pyridine trifluoroacetate salt] | ≤ 100 | ≤ 100 | ≤ 1000 |
| Cc1nnc2ccc3c(cc(-c4ccn(CCC#N)n4)n3Cc3cccc(CN4CCC4)c3)n12 [Example 183, 3-(3-{6-[3-(Azetidin-1-ylmethyl)benzyl]-1-methyl-6H-pyrrolo[2,3-e][1,2,4]triazolo[4,3-a]pyridin-7-yl}-1H-pyrazol-1-yl)propanenitrile bis(trifluoroacetate) salt] | – | – | ≤ 1000 |
| Cc1nnc2ccc3c(cc(-c4ccn(CCC(N)=O)n4)n3Cc3ccccc3)n12 [Example 98, 3-[3-(6-benzyl-1-methyl-6H-pyrrolo[2,3-e][1,2,4]triazolo[4,3-a]pyridin-7-yl)-1H-pyrazol-1-yl]propanamide] | – | – | ≤ 1000 |
| Cc1nnc2ccc3c(cc(-c4ccn(C5(CC#N)CN(S(C)(=O)=O)C5)n4)n3Cc3ccccc3)n12 [Example 92, [3-[3-(6-benzyl-1-methyl-6H-pyrrolo[2,3-e][1,2,4]triazolo[4,3-a]pyridin-7-yl)-1H-pyrazol-1-yl]-1-(methylsulfonyl)azetidin-3-yl]acetonitrile] | – | – | ≤ 1000 |
| Cc1cc2c(ccc3nnc(C)n32)n1Cc1cccc(CN2CCCCC2)c1 [Example 46, 1,7-dimethyl-6-[3-(piperidin-1-ylmethyl)benzyl]-6H-pyrrolo[2,3-e][1,2,4]triazolo[4,3-a]pyridine] | – | – | ≤ 1000 |
| Cc1cc2c(ccc3nnc(C)n32)n1Cc1cccc(CN2CCOCC2)c1 [Example 38, 1,7-dimethyl-6-[3-(morpholin-4-ylmethyl)benzyl]-6H-pyrrolo[2,3-e][1,2,4]triazolo[4,3-a]pyridine] | – | – | ≤ 1000 |
| Cc1cc2c(cc(Nc3nc4ccccc4[nH]3)c3nnc(C)n32)n1Cc1ccccc1 [Example 205, N-1H-Benzimidazol-2-yl-6-benzyl-1,7-dimethyl-6H-pyrrolo[2,3-e][1,2,4]triazolo[4,3-a]pyridin-4-amine trifluoroacetate salt] | – | – | ≤ 1000 |

Further lines, with some results ahead:

| IC50 [1] [nM] | IC50 [2] [nM] | SMILES | IC50 [3] [nM] |
| --- | --- | --- | --- |
| ≤ 100 | ≤ 100 | Cc1nnc2ccc3c(cc(-c4nnco4)n3Cc3cc(Cl)cc(CN4CC(O)C4)c3)n12 [Example 139, 1-(3-Chloro-5-{[1-methyl-7-(1,3,4-oxadiazol-2-yl)-6H-pyrrolo[2,3-e][1,2,4]triazolo[4,3-a]pyridin-6-yl]methyl}benzyl)azetidin-3-ol] | 1000 to 10000 |
| ≤ 100 | – | Cc1nc2c(cc(NC3CCN(C)CC3)c3nnc(C)n32)n1Cc1ccccc1 [Example 223, 3-Benzyl-2,8-dimethyl-N-(1-methylpiperidin-4-yl)-3H-imidazo[4,5-e][1,2,4]triazolo[4,3-a]pyridin-5-amine] | ≤ 1000 |
| – | ≤ 100 | Cc1nnc2ccc3c(cc(-c4ccn(C5CN(S(C)(=O)=O)C5)n4)n3Cc3cccc(Cl)c3)n12 [Example 109, 6-(3-chlorobenzyl)-1-methyl-7-{1-[1-(methylsulfonyl)azetidin-3-yl]-1H-pyrazol-3-yl}-6H-pyrrolo[2,3-e][1,2,4]triazolo[4,3-a]pyridine] | ≤ 1000 |
| 100 to 1000 | ≤ 100 | Cc1cc2c(ccc3nnc(C)n32)n1[C@@H](C)c1ccccc1 (single isomer, unassigned) [Example 5, 1,7-dimethyl-6-(1-phenylethyl)-6H-pyrrolo[2,3-e][1,2,4]triazolo[4,3-a]pyridine] | 1000 to 10000 |
| ≤ 100 | – | CCN1CC(CC#N)(n2ccc(-c3cc4c(ccc5nnc(C)n54)n3Cc3ccccc3)n2)C1 [Example 110, {3-[3-(6-benzyl-1-methyl-6H-pyrrolo[2,3-e][1,2,4]triazolo[4,3-a]pyridin-7-yl)-1H-pyrazol-1-yl]-1-ethylazetidin-3-yl}acetonitrile] | ≤ 1000 |
| ≤ 100 | ≤ 100 | Cc1nnc2ccc3c(cc(-c4ccn(C5CNC5)n4)n3Cc3cccc(Cl)c3)n12 [Example 156, 7-(1-azetidin-3-yl-1H-pyrazol-3-yl)-6-(3-chlorobenzyl)-1-methyl-6H-pyrrolo[2,3-e][1,2,4]triazolo[4,3-a]pyridine bis(trifluoroacetate) salt] | ≤ 1000 |
